Measured values taken from EP0461264A1, “ETHYNYLPHENYL DERIVATIVE, PRODUCTION THEREOF, AND REMEDY FOR DISEASES OF CIRCULATORY ORGANS CONTAINING THE SAME AS ACTIVE INGREDIENT” (KAKEN PHARMACEUTICAL CO., LTD., priority 1989, dated 1991).
Structures can show the parent of a compound that is named as a salt. Where two headings read alike, the source gives them in different places.

Legend:
[1] = test system: spontaneously hypertensive rats; assay: Activity against blood pressure (Test Example 1-1), tail-cuff measurement after oral administration; format: in vivo; settings: Rattus norvegicus
Experimental: Male spontaneously hypertensive rats (20 to 30 weeks) were employed. After being heated in a heating box at 45 ° C for about 5 minutes, the rats were put in holders for measuring blood pressure, and blood pressure cuffs were set on the rats. After the rat's heart rate was stabilized, blood pressure of each rat was measured by a sphygmomanometer for rat (8002e, made by W + W Co., Ltd.) before the administration, and one hour, three hours and six hours after the administration. Each test compound dissolved in a 0.5 % solution of methyl cellulose was administered orally in a volume of 5 mℓ/kg.
Change of the blood pressure was calculated by the following formula.
(§1) Change rate (%) = [(Measured value after administration - Measured value before administration)/Measured value before administration] x 100

[2] = test system: convulsion caused by pentylenetetrazole; assay: Activity against convulsion caused by pentylenetetrazole (Test Example 6); format: in vivo, Slc: ddy male mice; settings: summary of Table 4
Experimental: Slc: ddy male mice weighing 24 to 32 g (5 weeks) were bred under an environment of 22° to 24° C room temperature and 60 % humidity for 1 week, and then the bred mice were subjected to a test. The test was carried out as the following procedure. One hour after the oral administration of a test compound, 40 mg/kg of pentylenetetrazole was administered in a caudal vein. Appearance of tonic extensive convulsion was measured as an indication, and anticonvulsive activity was examined. Each test compound was suspended in a 0.5 % solution of methyl cellulose, which was used for a control group.

[3] = Acute toxicity (Test Example 7); settings: rat, in vivo; oral administration, death rate after 7 days; read-out: Rat LDso
Experimental: In each group 5 Slc: Wistar male rats weighing 100 g to 114 g (4 weeks) were employed. The compound No. 1 was administered orally thereto and with death rate after 7 days a value of acute toxicity was measured.
Rat LDso = 300 to 1000 mg/kg (oral administration)

[4] = test system: model of vasopressin myocardial ischemia; assay: Activity against a model of vasopressin myocardial ischemia (ST wave depression, Test Example 3); format: in vivo, Donryu strain male rats; settings: intravenous, five minutes before vasopressin 0.3 µg/kg, compared with nicardipine or nifedipine, Figure 3
Experimental: In accordance with a method of Hiramatu et al. (Japanese Journal Pharmacology 20,313 to 324,1970), Donryu strain male rats weighing 142 to 265 g were employed. Rats were anesthetized by intraperitoneally administering 60 mg/kg of pentobarbital sodium. After intravenous administration of 0.3 µg/kg of vasopressin, electrocardiogram (lead II) was recorded every one minute for five minutes. The maximum depression of ST wave in electrocardiogram was measured as an indication of myocardial ischemia. Five minutes before the administration of vasoperessin, each test compound dissolved in a mixted solution containing 20 % of propylen glycol and 5 % of glucose, was administered intravenously in a dose of 1 mt/kg.

[5] = test system: angiotensin II; assay: Inhibitory activity against angiotensin II, constriction response of ileum preparations (Test Example 5); format: cell-based, Hartrey male guinea pigs
Experimental: From Hartrey male guinea pigs weighing about 500 g, ileum preparations were prepared. […] Thereinto 3 x 10^-8M of angiotensin II was added and constriction response of each preparation was measured through a isometoric transducer (made by Nihon Koden Kogyo Co., Ltd.). Before the addition of angiotensin II, a compound of the present invention or saralasin was previously added into a Magnus trough. Contractive responses in both cases were compared and Inhibition rate was calculated by the following formula.
Angiotensin II Inhibition rate = (1 - Tension in case of adding test compound/Tension of control) x 100

[6] = test system: left circumflex coronary artery and right vertebral artery blood flow; assay: Activity against blood flow in anesthetized dogs (Test Example 4); format: in vivo, Beagle dogs; settings: intravenous, compared with nicardipine or nimodipine, Figure 4
Experimental: Beagle dogs weighing 7 to 14 kg were employed, irrespective of sex. Dogs were anesthetized by intravenously administering 30 mg/kg of pentobarbital sodium (Nembutal). During the test […] of pentobarbital was injected continually into each dog. A endotracheal tube was inserted into each trachea. Incision was performed along the midline of the chest and a heart was exposed. Probes of a electromagnetic flowmeter (made by Nihon Koden Kohgyo Co., Ltd.) were set on a left circumflex coronary artery and a right vertebral artery. Each parameter was recorded simultaneously by polygragh (made by Nihon Koden Kogyo Co., Ltd.). […] Change of blood flow was calculated by the following Change rate.
as §1

[7] = test system: atrioventricular conduction system; settings: rat, in vivo, iv
[8] = test system: Spontaneous hypertensive male rats; assay: Duration of blood pressure reduction activity (Test Example 1-2), direct aortic pressure without anesthesia; format: in vivo; settings: oral, 3 mg/kg or 10 mg/kg, Figure 1
Experimental: Spontaneous hypertensive male rats (35 weeks) were employed. Before the day the test was carried out, rats were anesthetized with ether, and then, a polyethylene tube was inserted into an aorta abdominalis of the each rat. The other end of the polyethylene tube was led out of the rat's body, and the led polyethylene tube was connected with a pressure transducer. Blood pressure of each rat was measured by a polygraph (RM-85, made by Nihon Koden Kohgyo Co., Ltd.) without anesthesia before the administration, at intervals of one hour for eight hours after the administration and 24 hours after the administration.
Each test compound disolved in a 0.5 % solution of methyl cellulose was administered orally in a volume of 5 m í/kg and in a dose of 3 mg/kg or 10 mg/kg.
As is clear from Figure 1, blood pressure reduction activity of the compound No. 1 lasted for at least eight hours.

[9] = 1 h, one hour after administration, read-out: Change rate of blood pressure 1 hr. value
[10] = 3 h, three hours after administration, read-out: Change rate of blood pressure 3 hr. value
[11] = 6 h, six hours after administration, read-out: Change rate of blood pressure 6 hr. value

`C#Cc1cccc(C2C(C(=O)OC)=C(C)NC(C)=C2C(=O)OCCCN2CCN(c3ccccc3OC)CC2)c1` (stereo not shown) [compound 18, 4-(3-ethynylphenyl)-3-methoxycarbonyl-5-[3-(N-2-methoxyphenyl-piperazinyl)propoxycarbonyl]-2,6-dimethyl-1,4-dihydropyridine] gave a change in vivo at 10 mg/kg [1, 9] of -5.3%, a change in vivo at 10 mg/kg [1, 10] of -12.4% and a change in vivo at 10 mg/kg [1, 11] of -14.3%.
For `COC(=O)C1=C(C)NC(C)=C(C(=O)OCCN(C)Cc2ccccc2)C1c1cccc([N+](=O)[O-])c1` (stereo not shown) [Nicardipine, 2-(N-benzyl-N-methylamino)ethyl, methyl 2,6-dimethyl-4-(3-nitrophenyl)-1,4-dihydropyridinedicarboxylate hydrochloride, reference compound], the change in vivo at 10 mg/kg [1, 9] was -35%, the change in vivo at 10 mg/kg [1, 10] was -3.5% and the change in vivo at 10 mg/kg [1, 11] was -2%.
Work on `C#Cc1cccc(F)c1C1C(C(=O)OC)=C(C)NC(C)=C1C(=O)OCCN1CCN(C(c2ccccc2)c2ccccc2)CC1` (stereo not shown) [compound 2, 4-(2-ethynyl-6-fluorophenyl)-3-methoxycarbonyl-2,6-dimethyl-5-(N-diphenylmethylpiperazinylethoxycarbonyl)-1,4-dihydropyridine] yielded a change in vivo at 30 mg/kg [1, 9] of -25%, a change in vivo at 30 mg/kg [1, 10] of -22.5% and a change in vivo at 30 mg/kg [1, 11] of -10%.
Work on `C#Cc1cccc(C2C(C(=O)OC)=C(C)NC(C)=C2C(=O)OCCN2CCN(C(c3ccc(F)cc3)c3ccc(F)cc3)CC2)c1` (stereo not shown) [compound 4, 4-(3-ethynylphenyl)-3-methoxycarbonyl-2,6-dimethyl-5-(N-di-4-fluorophenylmethylpiperazinylethoxycarbonyl)-1,4-dihydropyridine] yielded a change in vivo at 10 mg/kg [1, 9] of -41.2%, a change in vivo at 10 mg/kg [1, 10] of -40.9% and a change in vivo at 10 mg/kg [1, 11] of -35.7%.
Work on `C#Cc1cccc(C2C(C(=O)OCCN3CCN(C(c4ccccc4)c4ccccc4)CC3)=C(C)NC(N)=C2C(=O)OCC)c1` (stereo not shown) [compound 26, 4-(3-ethynylphenyl)-3-ethoxycarbonyl-2-amino-6-methyl-5-(N-diphenylmethylpiperazinylethoxycarbonyl)-1,4-dihydropyridine] yielded a change in vivo at 30 mg/kg [1, 9] of -38.8%, a change in vivo at 30 mg/kg [1, 10] of -43.8% and a change in vivo at 30 mg/kg [1, 11] of -41.5%.
`C#Cc1cccc(C2C(C(=O)OC)=C(C)NC(C)=C2C(=O)OCCN2CCN(C(c3ccccc3)c3ccccc3)CC2)c1` (stereo not shown) [Compound No. 1, 4-(3-ethynylphenyl)-3-methoxycarbonyl-2,6-dimethyl-5-(N-diphenyl-methylpiperazinylethoxycarbonyl)-1,4-dihydropyridine] gave a change in vivo at 10 mg/kg [1, 9] of -39%, a change in vivo at 10 mg/kg [1, 10] of -45.2% and a change in vivo at 10 mg/kg [1, 11] of -43.3%. For the same compound, the anticonvulsive activity [2] was “did not show the activity”, the LD50 at 168 h [3] was 300 to 1000 mg/kg and the “antimyocardial ischemia activity (maximum depression of ST wave)” value [4] was “greater antimyocardial ischemia activity than that of nicardipine or nifedipine”. It also gave an inhibition at 1 µM ([5]; Cavia porcellus, Concentration 10^-6 M, 3 x 10^-8M angiotensin II, read-out: Angiotensin II Inhibition rate (%)) of 71.1%, an inhibition at 0.1 µM ([5]; Cavia porcellus, Concentration 10^-7 M, 3 x 10^-8M angiotensin II, read-out: Angiotensin II Inhibition rate (%)) of 56.2% and an inhibition at 0.01 µM ([5]; Cavia porcellus, Concentration 10^-8 M, 3 x 10^-8M angiotensin II, read-out: Angiotensin II Inhibition rate (%)) of 6.5%. The “Inhibitory activity against angiotension II” value ([5]; compared with saralasin, positive control drug) was “the same extent of Inhibitory activity against angiotension II as that of saralasin”, the “activity for increasing coronary blood flow” value [6] was “greater activity” and the “activity for increasing vertebral blood flow” value [6] was “greater activity”. The “influence on artrioventricular conduction system (change rate of PQ interval)” value [7] was “less influence on artrioventricular conduction system as compared with nicardipine” and the “Duration of blood pressure reduction activity” value [8] was “at least eight”.
`COCCOC(=O)C1=C(C)NC(C)=C(C(=O)OC(C)C)C1c1cccc([N+](=O)[O-])c1` (stereo not shown) [Nimodipine, isopropyl, 2-methoxyethyl 2,6-dimethyl-4-(3-nitrophenyl)-1,4-dihydropyridinedicarboxylate, reference compound] showed a change in vivo at 10 mg/kg [1, 9] of -11%, a change in vivo at 10 mg/kg [1, 10] of -11% and a change in vivo at 10 mg/kg [1, 11] of -10.2%.
In the case of Saralasin [reference compound], the “Angiotensin II Inhibition rate (%)” value ([5]; Concentration 10^-7 M, 3 x 10^-8M angiotensin II) is reported as 47.3%.
For `C#Cc1cccc(C2C(C(=O)OC)=C(C)NC(C)=C2C(=O)OC(C)CN2CCN(C(c3ccccc3)c3ccccc3)CC2)c1` (stereo not shown) [compound 37, 4-(3-ethynylphenyl)-3-methoxycarbonyl-2,6-dimethyl-5-[2-(N-diphenyl-methylpiperazinyl)-1-methylethoxycarbonyl]-1,4-dihydropyridine], the change in vivo at 30 mg/kg [1, 9] was -38.1%, the change in vivo at 30 mg/kg [1, 10] was -44.7% and the change in vivo at 30 mg/kg [1, 11] was -48.7%.
In the case of `O=C1NC(=O)C(c2ccccc2)(c2ccccc2)N1` [Diphenylhidantoin, reference compound], the anticonvulsive activity [2] is reported as “showing anticonvulsive activity”.
With `C#Cc1cccc(C2C(C(=O)OC)=C(C)NC(C)=C2C(=O)OCCN2CCN(C(c3ccc(C)cc3)c3ccc(C)cc3)CC2)c1` (stereo not shown) [compound 5, 4-(3-ethynylphenyl)-3-methoxycarbonyl-2,6-dimethyl-5-(N-di-4-methyl-phenylmethylpiperazinylethoxycarbonyl)-1,4-dihydropyridine] the change in vivo at 10 mg/kg [1, 9] was -41.5%, the change in vivo at 10 mg/kg [1, 10] was -41.5% and the change in vivo at 10 mg/kg [1, 11] was -29.2%.
